In one assay the target is T1, human GST-HPK1 (1-346) (Homo sapiens, UniProt Q92918).
T1 construct: purified human GST-HPK1 (1-346, Signalchem) enzyme; purchased Signalchem
T1 sequence (Q92918 1-346): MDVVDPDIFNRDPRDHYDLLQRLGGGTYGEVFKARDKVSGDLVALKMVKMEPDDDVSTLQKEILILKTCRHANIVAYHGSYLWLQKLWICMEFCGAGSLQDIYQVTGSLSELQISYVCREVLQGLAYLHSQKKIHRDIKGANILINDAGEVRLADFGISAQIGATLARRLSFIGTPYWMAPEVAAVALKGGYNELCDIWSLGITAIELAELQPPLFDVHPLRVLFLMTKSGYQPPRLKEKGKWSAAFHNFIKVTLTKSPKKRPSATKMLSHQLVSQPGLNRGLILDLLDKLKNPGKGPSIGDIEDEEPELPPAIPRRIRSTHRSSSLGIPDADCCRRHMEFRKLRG
The experiment in a line: HPK1 enzyme inhibitory ability (ADP-Glo kinase assay). The assay is classed as biochemical. The settings on record: human GST-HPK1 3 ng, ATP 3 uM, 25° C. 2 hours. Put shortly:
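Human GST-HPK1(1-346), 3 ng, reacted with 3 uM ATP and specific substrate in 40 mM Tris-HCl pH 7.4, 20 mM MgCl2, 0.5 mg/mL BSA, 50 uM DTT for 2 h at 25° C. ADP-Glo luminescence read; IC50 (nM) relative to untreated solvent control.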

In a further assay the test system is MCF-7 cells. Put plainly: Breast cancer cell line proliferation inhibitory activity (CellTiter-Glo 2.0). Format: cell-based. Conditions: Homo sapiens, MCF7, 120 hours. Put shortly: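 MCF-7 cells exposed to a 12-point, 3-fold dilution series (final 0.00005–10 μM) for 120 h at 37 °C. Viability read by CellTiter-Glo 2.0 luminescence, expressed as percent of vehicle-treated cells. GI50 (nM) derived from the curves.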

A further assay deals with RS4;11 cells. Put plainly: AML cell proliferation inhibitory activity (CellTiter-Glo). The assay is classed as cell-based. Conditions: Homo sapiens, 72 hours. Put shortly: (§1)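 RS4;11 and MV4-11 cells in RPMI-1640 with 10% FBS, seeded 24 h before treatment, then exposed 72 h to 12 three-fold dilutions (0.3 nM–50 μM final). Viability by CellTiter-Glo luminescence relative to solvent control; GI50 from triplicate experiments.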

The next assay concerns MV4-11 cells. The assay is described as above. The assay is classed as cell-based. Conditions: Homo sapiens, 72 hours. Put shortly: as §1
The next assay deals with T2, human FLT3-ITD enzyme (Homo sapiens, UniProt P36888).
T2 sequence (P36888 1-993): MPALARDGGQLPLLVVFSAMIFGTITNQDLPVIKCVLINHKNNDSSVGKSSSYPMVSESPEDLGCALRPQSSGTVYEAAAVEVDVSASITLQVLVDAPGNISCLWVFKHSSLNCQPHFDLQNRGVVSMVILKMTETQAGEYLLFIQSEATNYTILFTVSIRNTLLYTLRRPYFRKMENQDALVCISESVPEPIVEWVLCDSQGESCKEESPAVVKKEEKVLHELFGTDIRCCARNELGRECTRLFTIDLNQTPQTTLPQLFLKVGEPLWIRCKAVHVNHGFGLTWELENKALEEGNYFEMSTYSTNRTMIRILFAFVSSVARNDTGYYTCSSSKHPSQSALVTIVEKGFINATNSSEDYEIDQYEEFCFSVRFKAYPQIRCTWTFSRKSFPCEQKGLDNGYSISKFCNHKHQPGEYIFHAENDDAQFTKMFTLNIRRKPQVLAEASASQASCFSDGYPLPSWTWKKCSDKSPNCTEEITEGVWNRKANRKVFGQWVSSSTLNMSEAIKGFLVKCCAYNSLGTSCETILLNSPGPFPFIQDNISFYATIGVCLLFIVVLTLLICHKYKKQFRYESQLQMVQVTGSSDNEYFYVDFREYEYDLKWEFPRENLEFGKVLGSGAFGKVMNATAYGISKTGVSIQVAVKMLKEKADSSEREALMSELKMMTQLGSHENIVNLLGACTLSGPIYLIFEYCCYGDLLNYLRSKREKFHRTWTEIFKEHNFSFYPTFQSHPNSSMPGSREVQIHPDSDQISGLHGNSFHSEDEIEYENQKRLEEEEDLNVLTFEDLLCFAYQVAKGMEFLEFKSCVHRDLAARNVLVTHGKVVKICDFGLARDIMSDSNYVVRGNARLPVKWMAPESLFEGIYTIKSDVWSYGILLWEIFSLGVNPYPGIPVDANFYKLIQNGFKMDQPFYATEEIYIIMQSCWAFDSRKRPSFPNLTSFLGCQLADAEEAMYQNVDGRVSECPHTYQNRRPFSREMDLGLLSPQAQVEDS
The experiment in a line: FLT3 enzyme inhibitory ability (ADP-Glo kinase assay). Conditions: human FLT3-ITD enzyme 10 ng, ATP 10 μM, 25° C. 1 hour. Format: biochemical. Put shortly: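 Purified human FLT3-ITD (10 ng) with 10 μM ATP and specific substrate in 40 mM Tris-HCl pH 7.4, 20 mM MgCl2, 0.5 mg/mL BSA, 50 μM DTT, 1 h at 25 °C. ADP formation read by ADP-Glo luminescence; IC50 (nM) versus solvent-treated control.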

As to `CN(C)CCCn1cc(Nc2nc(N3N=CCC3c3ccccc3)c3sccc3n2)cn1` (stereo not shown) [Example 26, N-(1-(3-(dimethylamino)propyl)-1H-pyrazol-4-yl)-4-(5-phenyl-4,5-dihydro-1H-pyrazol-1-yl)thieno[3,2-d]pyrimidin-2-amine], the IC50 against human GST-HPK1 (1-346) and against human FLT3-ITD enzyme was over 500 nM each time. Moreover, the GI50 in the assay with MCF-7 cells, in the assay with RS4;11 cells and in the assay with MV4-11 cells was over 500 nM throughout.

As for `C1=NN(c2nc(Nc3cnn(C4CCNCC4)c3)nc3ccsc23)C(c2ccccc2)C1` (stereo not shown) [Example 28, 4-(5-phenyl-4,5-dihydro-1H-pyrazol-1-yl)-N-(1-(piperidin-4-yl)-1H-pyrazol-4-yl)thieno[3,2-d]pyrimidin-2-amine], the IC50 was over 500 nM at human GST-HPK1 (1-346) and at least 250 nM on human FLT3-ITD enzyme. Further, the values for the concentration for 50% growth inhibition (GI50) with MCF-7 cells, in the assay with RS4;11 cells and in the assay on MV4-11 cells were over 500 nM, over 500 nM and at least 250 nM, respectively.

As to `CN1CCC(n2cc(Nc3nc(N4N=CCC4c4ccccc4)c4sccc4n3)cn2)CC1` (stereo not shown) [Example 29, N-(1-(1-methylpiperidin-4-yl)-1H-pyrazol-4-yl)-4-(5-phenyl-4,5-dihydro-1H-pyrazol-1-yl)thieno[3,2-d]pyrimidin-2-amine], the half-inhibitory concentration (IC50) against human GST-HPK1 (1-346) and on human FLT3-ITD enzyme was over 500 nM throughout. The GI50 in the assay on MCF-7 cells is over 500 nM; in the assay with RS4;11 cells, over 500 nM; in the assay on MV4-11 cells, 250 to 500 nM.

Turning to `CN1CCN(c2ccc(Nc3nc(N4N=CCC4C4CCCCC4)c4sccc4n3)cc2)CC1` (stereo not shown) [Example 30, 4-(5-cyclohexyl-4,5-dihydro-1H-pyrazol-1-yl)-N-(4-(4-methylpiperazin-1-yl)phenyl)thieno[3,2-d]pyrimidin-2-amine], the half-maximal inhibitory concentration (IC50) against human GST-HPK1 (1-346) and against human FLT3-ITD enzyme was over 500 nM throughout. Moreover, the GI50 in the assay on MCF-7 cells is over 500 nM; in the assay with RS4;11 cells it was at least 250 nM; in the assay on MV4-11 cells, 250 to 500 nM.

For the molecule `CN1CCN(c2ccc(Nc3nc(N4N=CCC4c4ccc5ccccc5c4)c4sccc4n3)cc2)CC1` (stereo not shown) [Example 31, N-(4-(4-methylpiperazin-1-yl)phenyl)-4-(5-(naphthalen-2-yl)-4,5-dihydro-1H-pyrazol-1-yl)thieno[3,2-d]pyrimidin-2-amine], the IC50 at human GST-HPK1 (1-346) and at human FLT3-ITD enzyme was over 500 nM in each case. The GI50 in the assay with MCF-7 cells, in the assay on RS4;11 cells and in the assay on MV4-11 cells was over 500 nM in each case.

Take `CN1CCN(c2ccc(Nc3nc(N4N=CCC4c4cccnc4)c4sccc4n3)cc2)CC1` (stereo not shown) [Example 34, N-(4-(4-methylpiperazin-1-yl)phenyl)-4-(5-(pyridin-3-yl)-4,5-dihydro-1H-pyrazol-1-yl)thieno[3,2-d]pyrimidin-2-amine]: the half-inhibitory concentration (IC50) against human GST-HPK1 (1-346) and against human FLT3-ITD enzyme was over 500 nM each time. The GI50 in the assay with MCF-7 cells, with RS4;11 cells and in the assay on MV4-11 cells was over 500 nM each time.

Regarding `CN1CCN(c2ccc(Nc3nc(N4N=CCC4c4ccncc4)c4sccc4n3)cc2)CC1` (stereo not shown) [Example 35, N-(4-(4-methylpiperazin-1-yl)phenyl)-4-(5-(pyridin-4-yl)-4,5-dihydro-1H-pyrazol-1-yl)thieno[3,2-d]pyrimidin-2-amine], the half-maximal inhibitory concentration (IC50) on human GST-HPK1 (1-346) and at human FLT3-ITD enzyme was over 500 nM throughout. For the same molecule, the GI50 in the assay on MCF-7 cells was over 500 nM; in the assay with RS4;11 cells, over 500 nM; with MV4-11 cells, 250 to 500 nM.

Consider `CCN1CCN(C2CCN(c3ccc(Nc4nc(N5N=CCC5c5ccccc5)c5sccc5n4)cc3)CC2)CC1` (stereo not shown) [Example 37, N-(4-(4-(4-ethylpiperazin-1-yl)piperidin-1-yl)phenyl)-4-(5-phenyl-4,5-dihydro-1H-pyrazol-1-yl)thieno[3,2-d]pyrimidin-2-amine], for which the IC50 is over 500 nM on human GST-HPK1 (1-346) and 250 to 500 nM on human FLT3-ITD enzyme. Besides, the concentration for 50% growth inhibition (GI50) in the assay with MCF-7 cells is over 500 nM; in the assay on RS4;11 cells, over 500 nM; in the assay on MV4-11 cells, at least 250 nM.

Regarding `CN(C)C1CCN(c2ccc(Nc3nc(N4N=CCC4c4ccccc4)c4sccc4n3)cc2)CC1` (stereo not shown) [Example 38, N-(4-(4-(dimethylamino)piperidin-1-yl)phenyl)-4-(5-phenyl-4,5-dihydro-1H-pyrazol-1-yl)thieno[3,2-d]pyrimidin-2-amine], the IC50 was over 500 nM at human GST-HPK1 (1-346) and at least 250 nM at human FLT3-ITD enzyme. Moreover, the GI50 was over 500 nM in the assay with MCF-7 cells, over 500 nM with RS4;11 cells and at least 250 nM in the assay on MV4-11 cells.

For `CN(C)[C@@H]1CCN(c2ccc(Nc3nc(N4N=CCC4c4ccccc4)c4sccc4n3)cc2)C1` (stereo partly drawn) [Example 43, N-(4-((R)-3-(dimethylamino)pyrrolidin-1-yl)phenyl)-4-(5-phenyl-4,5-dihydro-1H-pyrazol-1-yl)thieno[3,2-d]pyrimidin-2-amine], the values for the IC50 against human GST-HPK1 (1-346) and against human FLT3-ITD enzyme were over 500 nM and 250 to 500 nM, respectively. Further, the GI50 with MCF-7 cells is over 500 nM; in the assay on RS4;11 cells, over 500 nM; with MV4-11 cells, at least 250 nM.

Regarding `CN(C)[C@H]1CCN(c2ccc(Nc3nc(N4N=CCC4c4ccccc4)c4sccc4n3)cc2)C1` (stereo partly drawn) [Example 44, N-(4-((S)-3-(dimethylamino)pyrrolidin-1-yl)phenyl)-4-(5-phenyl-4,5-dihydro-1H-pyrazol-1-yl)thieno[3,2-d]pyrimidin-2-amine], the IC50 on human GST-HPK1 (1-346) and on human FLT3-ITD enzyme was over 500 nM each time. The GI50 in the assay on MCF-7 cells was over 500 nM; in the assay with RS4;11 cells it was over 500 nM; in the assay on MV4-11 cells, at least 250 nM.

Consider `CCN(CC)CCOc1ccc(Nc2nc(N3N=CCC3c3ccccc3)c3sccc3n2)cc1` (stereo not shown) [Example 45, N-(4-(2-(diethylamino)ethoxy)phenyl)-4-(5-phenyl-4,5-dihydro-1H-pyrazol-1-yl)thieno[3,2-d]pyrimidin-2-amine], for which the half-maximal inhibitory concentration (IC50) against human GST-HPK1 (1-346) is over 500 nM; against human FLT3-ITD enzyme it was 250 to 500 nM. Further, the 50% growth inhibitory concentration (GI50) was over 500 nM with MCF-7 cells, over 500 nM in the assay on RS4;11 cells and 250 to 500 nM in the assay on MV4-11 cells.

Turning to `CCN(CC)CCCOc1ccc(Nc2nc(N3N=CCC3c3ccccc3)c3sccc3n2)cc1` (stereo not shown) [Example 47, N-(4-(3-(diethylamino)propoxy)phenyl)-4-(5-phenyl-4,5-dihydro-1H-pyrazol-1-yl)thieno[3,2-d]pyrimidin-2-amine], the concentration for half-maximal inhibition (IC50) is over 500 nM on human GST-HPK1 (1-346) and 250 to 500 nM against human FLT3-ITD enzyme. The results for the GI50 with MCF-7 cells, in the assay on RS4;11 cells and in the assay with MV4-11 cells were over 500 nM, over 500 nM and at least 250 nM, respectively.

Turning to `CCN(CC)CCCOc1c(C)cc(Nc2nc(N3N=CCC3c3ccccc3)c3sccc3n2)cc1C` (stereo not shown) [Example 48, N-(4-(3-(diethylamino)propoxy)-3,5-dimethylphenyl)-4-(5-phenyl-4,5-dihydro-1H-pyrazol-1-yl)thieno[3,2-d]pyrimidin-2-amine], the IC50 at human GST-HPK1 (1-346) and on human FLT3-ITD enzyme was over 500 nM in each case. Also, the GI50 with MCF-7 cells, in the assay on RS4;11 cells and with MV4-11 cells was over 500 nM each time.

The record behind these values is patent US20220242870A1, “HETEROCYCLE-FUSED PYRIMIDINE DERIVATIVE AND USE THEREOF” (VORONOI Inc., priority 2019, published 2022).
